Laboratory results: patent US4713238A (GAF Corporation, priority 1986, dated 1987)
Converted amounts (≈) assume the structure as drawn.

Key:
[1] = cited from earlier work
physchem = settings: water
Procedure: The pH was adjusted with a buffer solution to 6 and distilled water was added to bring the solution to 1% concentration. The resulting mixture was agitated on a horizontal shaker at room temperature for 24 hours.
The pH was then adjusted to 6.5 with a concentrated aqueous hydrochloric acid solution to convert the complexed salt to the complexed product of the process and agitation was continued for 2 hours.

solubility thermodynamic at 24 h (physchem; pH 6, water): 500 µg/mL (≈ 1690 µM)
solubility (physchem; water solubility of uncomplexed chlorothiazide): ~500 µg/mL (≈ 1690 µM)
Compound: NS(=O)(=O)c1cc2c(cc1Cl)N=CNS2(=O)=O [chlorothiazide, 6-chloro-7-sulfamyl-1,2,4-benzothiadiazine-1,1-dioxide]
solubility in alkaline aqueous solutions ([1]; alkaline aqueous solutions / alkali hydroxides): soluble in alkaline aqueous solutions
water-solubility ([1]; pH 6): 0.5 g. per liter
